How the values were obtained:
[1] = molecular target: Tyrosine-protein kinase JAK2 (Homo sapiens, UniProt O60674); assay: Inhibition of JAK2 (unknown origin) in presence of ATP at Km concentration by caliper assay
[2] = molecular target: T1, Tyrosine-protein kinase JAK3 (Homo sapiens, UniProt P52333); assay: Inhibition of JAK3 (unknown origin) in presence of ATP at Km concentration by caliper assay
T1 sequence (P52333 whole entry): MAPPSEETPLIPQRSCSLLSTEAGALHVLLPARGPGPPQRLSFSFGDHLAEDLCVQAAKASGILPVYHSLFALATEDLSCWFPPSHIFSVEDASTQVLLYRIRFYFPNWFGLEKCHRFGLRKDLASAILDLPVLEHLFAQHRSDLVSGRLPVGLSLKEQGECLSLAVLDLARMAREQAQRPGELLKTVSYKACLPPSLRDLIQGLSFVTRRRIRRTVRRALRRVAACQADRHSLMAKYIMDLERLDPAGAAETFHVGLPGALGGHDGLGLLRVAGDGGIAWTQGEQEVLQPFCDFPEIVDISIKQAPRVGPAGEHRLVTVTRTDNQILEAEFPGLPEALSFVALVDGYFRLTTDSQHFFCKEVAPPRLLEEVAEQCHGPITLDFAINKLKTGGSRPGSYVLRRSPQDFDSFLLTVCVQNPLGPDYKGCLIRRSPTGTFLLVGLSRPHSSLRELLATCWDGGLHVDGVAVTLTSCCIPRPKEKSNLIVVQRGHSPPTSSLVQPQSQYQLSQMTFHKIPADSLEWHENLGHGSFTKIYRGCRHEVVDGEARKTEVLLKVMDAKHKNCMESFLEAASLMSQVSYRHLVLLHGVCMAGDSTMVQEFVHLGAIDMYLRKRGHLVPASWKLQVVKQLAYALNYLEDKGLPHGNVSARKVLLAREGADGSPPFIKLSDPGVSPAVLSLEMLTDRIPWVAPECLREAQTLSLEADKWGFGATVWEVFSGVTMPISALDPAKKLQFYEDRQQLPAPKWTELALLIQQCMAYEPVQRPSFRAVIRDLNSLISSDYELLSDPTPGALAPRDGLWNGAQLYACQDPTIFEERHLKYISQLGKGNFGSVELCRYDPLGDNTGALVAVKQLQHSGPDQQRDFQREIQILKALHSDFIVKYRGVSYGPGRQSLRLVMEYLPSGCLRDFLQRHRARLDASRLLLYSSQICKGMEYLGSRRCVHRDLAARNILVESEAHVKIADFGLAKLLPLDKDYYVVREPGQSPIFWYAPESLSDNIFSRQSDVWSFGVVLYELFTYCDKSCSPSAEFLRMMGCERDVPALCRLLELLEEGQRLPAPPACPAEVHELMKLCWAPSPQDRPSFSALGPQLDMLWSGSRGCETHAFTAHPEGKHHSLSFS

[3] = molecular target: Tyrosine-protein kinase JAK1 (Homo sapiens, UniProt P23458); assay: Inhibition of JAK1 (unknown origin) in presence of ATP at Km concentration by caliper assay
Sequence of Tyrosine-protein kinase JAK1 (P23458 whole entry): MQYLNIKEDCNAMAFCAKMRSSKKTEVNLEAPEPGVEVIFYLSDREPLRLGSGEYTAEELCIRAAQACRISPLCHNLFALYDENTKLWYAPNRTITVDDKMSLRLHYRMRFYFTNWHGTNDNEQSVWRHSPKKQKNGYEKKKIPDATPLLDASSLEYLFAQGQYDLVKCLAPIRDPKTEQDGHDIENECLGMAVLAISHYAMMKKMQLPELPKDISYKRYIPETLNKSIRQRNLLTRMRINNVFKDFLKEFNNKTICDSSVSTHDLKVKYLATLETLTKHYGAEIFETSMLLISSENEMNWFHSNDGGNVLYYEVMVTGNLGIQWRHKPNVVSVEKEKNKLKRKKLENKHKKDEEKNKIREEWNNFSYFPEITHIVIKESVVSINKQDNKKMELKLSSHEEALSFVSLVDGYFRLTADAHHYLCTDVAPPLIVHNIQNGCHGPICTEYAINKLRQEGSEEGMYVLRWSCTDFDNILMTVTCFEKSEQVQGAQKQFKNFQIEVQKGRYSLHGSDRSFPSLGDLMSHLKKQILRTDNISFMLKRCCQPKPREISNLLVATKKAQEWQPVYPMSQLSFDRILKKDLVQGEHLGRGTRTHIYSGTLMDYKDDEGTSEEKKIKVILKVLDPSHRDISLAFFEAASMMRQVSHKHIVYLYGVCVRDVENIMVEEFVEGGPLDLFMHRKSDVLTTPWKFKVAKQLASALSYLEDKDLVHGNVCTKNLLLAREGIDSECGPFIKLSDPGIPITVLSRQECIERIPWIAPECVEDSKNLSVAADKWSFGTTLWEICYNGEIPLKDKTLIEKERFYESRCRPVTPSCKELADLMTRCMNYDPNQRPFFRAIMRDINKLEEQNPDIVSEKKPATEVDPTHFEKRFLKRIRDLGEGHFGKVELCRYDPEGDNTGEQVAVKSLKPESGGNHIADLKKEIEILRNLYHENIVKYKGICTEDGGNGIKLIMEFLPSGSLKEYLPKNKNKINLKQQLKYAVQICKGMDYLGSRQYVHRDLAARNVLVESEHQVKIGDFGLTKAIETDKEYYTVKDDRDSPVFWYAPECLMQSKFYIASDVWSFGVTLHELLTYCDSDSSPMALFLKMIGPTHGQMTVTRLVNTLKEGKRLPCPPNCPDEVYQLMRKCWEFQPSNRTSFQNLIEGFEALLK

Sequence of Tyrosine-protein kinase JAK2 (O60674 whole entry): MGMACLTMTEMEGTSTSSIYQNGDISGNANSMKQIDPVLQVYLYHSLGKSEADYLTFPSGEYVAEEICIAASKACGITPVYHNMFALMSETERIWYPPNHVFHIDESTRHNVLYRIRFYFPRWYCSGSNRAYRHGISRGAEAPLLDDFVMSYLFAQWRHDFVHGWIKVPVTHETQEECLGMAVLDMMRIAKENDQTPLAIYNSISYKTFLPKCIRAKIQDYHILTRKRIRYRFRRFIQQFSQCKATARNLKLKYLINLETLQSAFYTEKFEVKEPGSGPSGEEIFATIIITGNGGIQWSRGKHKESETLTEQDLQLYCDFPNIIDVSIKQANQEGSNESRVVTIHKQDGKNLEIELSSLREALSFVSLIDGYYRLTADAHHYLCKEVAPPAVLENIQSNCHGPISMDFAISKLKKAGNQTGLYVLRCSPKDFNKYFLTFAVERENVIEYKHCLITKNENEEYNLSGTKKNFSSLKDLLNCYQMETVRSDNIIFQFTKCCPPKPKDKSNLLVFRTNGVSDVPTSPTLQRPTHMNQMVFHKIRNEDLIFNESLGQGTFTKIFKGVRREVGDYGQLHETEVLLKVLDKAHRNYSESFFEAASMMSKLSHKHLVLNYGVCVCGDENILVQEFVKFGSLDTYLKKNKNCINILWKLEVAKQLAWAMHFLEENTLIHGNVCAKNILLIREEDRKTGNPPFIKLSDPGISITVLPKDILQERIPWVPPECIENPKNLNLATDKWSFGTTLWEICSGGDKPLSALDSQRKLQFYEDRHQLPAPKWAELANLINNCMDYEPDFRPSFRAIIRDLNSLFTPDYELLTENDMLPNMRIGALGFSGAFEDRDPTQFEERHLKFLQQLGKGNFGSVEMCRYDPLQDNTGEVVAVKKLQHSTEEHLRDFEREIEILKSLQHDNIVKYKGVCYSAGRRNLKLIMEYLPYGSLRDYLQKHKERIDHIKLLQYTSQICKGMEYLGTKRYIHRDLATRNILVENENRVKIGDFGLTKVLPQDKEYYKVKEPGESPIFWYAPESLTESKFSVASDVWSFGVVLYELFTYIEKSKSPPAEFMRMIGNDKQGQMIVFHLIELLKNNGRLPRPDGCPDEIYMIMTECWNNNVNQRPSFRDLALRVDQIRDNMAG

| Structure (SMILES) | IC50 [1] | IC50 [2] | IC50 [3] |
| --- | --- | --- | --- |
| C=C(C#N)C(O)c1ccc(-c2cccc3nc(NC(=O)C4CC4)nn23)cc1 (configuration not stated) | 55 nM |  |  |
| N#CCNC(=O)c1ccc(-c2cccc3nc(NC(=O)C4CC4)nn23)cc1 | 299 nM |  |  |
| O=C(Nc1nc2cccc(-c3ccc(C(=O)N4CC(F)(F)C4)cc3)n2n1)C1CC1 | 139 nM | 941 nM | 124 nM |
| O=C(NCC(F)(F)F)c1ccc(-c2cccc3nc(NC(=O)C4CC4)nn23)cc1 | 214 nM | 1020 nM | 230 nM |

Other lines, results leading:

| IC50 [1] | IC50 [2] | IC50 [3] | Structure (SMILES) |
| --- | --- | --- | --- |
| 317 nM |  |  | O=C(Nc1nc2cccc(C3=CCN(C(=O)C4(C(F)(F)F)CC4)CC3)n2n1)C1CC1 |
| 441 nM |  |  | N#CC1(C(=O)N2CC=C(c3cccc4nc(NC(=O)C5CC5)nn34)CC2)CC1 |
| 157 nM |  |  | N#CCC(=O)N1CC=C(c2cccc3nc(NC(=O)C4CC4)nn23)CC1 |
| 175 nM |  |  | N#CCNC(=O)N1CC=C(c2cccc3nc(NC(=O)C4CC4)nn23)CC1 |
| 424 nM |  |  | C=CC(=O)N1CC=C(c2cccc3nc(NC(=O)C4CC4)nn23)CC1 |
| 347 nM | 1740 nM | 234 nM | O=C(Nc1nc2cccc(C3=CCN(C(=O)NCC(F)(F)F)CC3)n2n1)C1CC1 |
| 192 nM |  |  | O=C(Nc1nc2cccc(C3=CCN(C(=O)C4CC4(F)F)CC3)n2n1)C1CC1 (configuration not stated) |
